Results from patent publication US12552804B2, “Tricyclic heterocycles as FGFR inhibitors” (Incyte Corporation, priority 2019, dated 2026).

Molecular target: wild-type un-phosphorylated FGFR3 protein (Homo sapiens, UniProt P22607)
Test: FGFR Enzymatic Assay (FRET detection of peptide phosphorylation)
Format: biochemical
Conditions: pre-incubated for 4 hours, read-out: FGFR3_Ki
Procedure: The inhibitor potency of the exemplified compounds was determined in an enzyme discontinuous assay that measures peptide phosphorylation using FRET measurements to detect product formation. Inhibitors were serially diluted in DMSO and a volume of 0.2 μL was transferred to the wells of a 384-well plate. A 5 μL/well volume of enzyme isoforms of FGFR (−1, −2, −3 wild-type and mutant isoforms, −4) including phosphorylated and un-phosphorylated proteins diluted in assay buffer (50 mM HEPES, 10 mM MgCl2, 1 mM EGTA, 0.01% Tween-20, 5 mM DTT, pH 7.5) was added to the plate and pre-incubated with inhibitor for 5 to 15 minutes at ambient temperature. Appropriate controls (enzyme blank and enzyme with no inhibitor) were included on the plate. […] The ATP Km values were pre-determined in a separate series of experiments. The reaction plate was incubated at 25° C. for 1 hr and the reactions were ended with the addition of 5 μL/well of quench solution (50 mM Tris, 150 mM NaCl, 0.5 mg/mL BSA, pH 7.8; 45 mM EDTA, 600 nM staurosporin, with Perkin Elmer Lance Reagents at 3.75 nM Eu-antibody PY20 and 180 nM APC-Streptavidin). The plate was allowed to equilibrate for ˜10 minutes at ambient temperature before scanning on a PheraStar plate reader (BMG Labtech) instrument.
Either GraphPad prism or XLfit was used to analyze the data. The IC50 values were derived by fitting the data to a four parameter logistic equation producing a sigmoidal dose-response curve with a variable Hill coefficient. Prism equation: Y=Bottom+(Top−Bottom)/(1+10^((LogIC50−X)*Hill slope)); XLfit equation: Y=(A+((B−A)/(1+((X/C)^D)))) where X is the logarithm of inhibitor concentration and Y is the response.
The data in Table 1 was measured in wild-type un-phosphorylated FGFR3 protein.

wild-type un-phosphorylated FGFR3 protein, sequence (P22607 23-806): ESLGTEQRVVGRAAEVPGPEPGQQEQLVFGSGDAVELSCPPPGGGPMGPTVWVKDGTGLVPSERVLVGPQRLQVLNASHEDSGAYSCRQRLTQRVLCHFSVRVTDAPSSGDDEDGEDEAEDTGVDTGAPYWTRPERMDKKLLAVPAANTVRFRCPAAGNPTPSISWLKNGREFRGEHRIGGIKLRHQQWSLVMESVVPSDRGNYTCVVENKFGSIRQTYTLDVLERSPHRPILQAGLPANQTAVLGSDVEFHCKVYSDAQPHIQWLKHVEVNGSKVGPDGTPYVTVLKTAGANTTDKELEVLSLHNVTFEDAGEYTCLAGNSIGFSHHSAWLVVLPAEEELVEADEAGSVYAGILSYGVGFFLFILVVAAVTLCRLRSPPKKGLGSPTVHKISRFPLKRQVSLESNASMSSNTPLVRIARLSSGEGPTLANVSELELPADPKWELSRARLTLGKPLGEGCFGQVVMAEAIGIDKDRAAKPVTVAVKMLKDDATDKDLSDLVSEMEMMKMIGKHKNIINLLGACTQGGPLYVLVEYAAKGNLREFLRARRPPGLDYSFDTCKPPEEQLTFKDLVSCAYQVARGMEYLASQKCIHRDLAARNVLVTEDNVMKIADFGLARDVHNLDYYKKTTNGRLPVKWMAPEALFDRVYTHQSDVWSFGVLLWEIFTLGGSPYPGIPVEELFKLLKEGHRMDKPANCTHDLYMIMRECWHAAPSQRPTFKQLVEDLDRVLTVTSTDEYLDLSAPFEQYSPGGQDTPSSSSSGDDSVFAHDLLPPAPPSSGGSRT

| Ki [nM] | SMILES |
| --- | --- |
| < 10 | Cc1c(-c2c(Cl)cccc2Cl)nc2c3cc(-c4cnn(C56CCN(C(=O)CO)CC5C6)c4)cnc3ccn12 (stereo not shown) [Example 59, 1-(6-(4-(2-(2,6-Dichlorophenyl)-3-methylimidazo[2,1-f][1,6]naphthyridin-9-yl)-1H-pyrazol-1-yl)-3-azabicyclo[4.1.0]heptan-3-yl)-2-hydroxyethan-1-one] |
| < 10 | CC(=O)N1CCC2CC2(n2cc(-c3cnc4ccn5c(C)c(-c6c(Cl)cccc6Cl)nc5c4c3)cn2)C1 (stereo not shown) [Example 60, 1-(1-(4-(2-(2,6-Dichlorophenyl)-3-methylimidazo[2,1-f][1,6]naphthyridin-9-yl)-1H-pyrazol-1-yl)-3-azabicyclo[4.1.0]heptan-3-yl)ethan-1-one] |
| 10 to 100 | Cc1c(-c2c(Cl)cccc2Cl)nc2c3cc(-c4ccc(C5CN(C(=O)CO)C5)nc4)cnc3ccn12 [Example 61, 1-(3-(5-(2-(2,6-Dichlorophenyl)-3-methylimidazo[2,1-f][1,6]naphthyridin-9-yl)pyridin-2-yl)azetidin-1-yl)-2-hydroxyethan-1-one] |
| 10 to 100 | CC(=O)N1CC(c2cncc(-c3cnc4ccn5c(C)c(-c6c(Cl)cccc6Cl)nc5c4c3)c2)C1 [Example 62, 1-(3-(5-(2-(2,6-Dichlorophenyl)-3-methylimidazo[2,1-f][1,6]naphthyridin-9-yl)pyridin-3-yl)azetidin-1-yl)ethan-1-one] |
| < 10 | CC(=O)N1CC(c2ccc(-c3cnc4ccn5c(C)c(-c6c(Cl)cccc6Cl)nc5c4c3)cc2)C1 [Example 63] |
| < 10 | CC(=O)N1CC[C@H](n2cc(-c3cnc4ccn5c(CO)c(-c6ccccc6Cl)nc5c4c3)cn2)C1 [Example 64, (S)-1-(3-(4-(2-(2-Chlorophenyl)-3-(hydroxymethyl)imidazo[2,1-f][1,6]naphthyridin-9-yl)-1H-pyrazol-1-yl)pyrrolidin-1-yl)ethan-1-one] |
| 10 to 100 | CC(C)c1c(-c2ccccc2Cl)nc2c3cc(-c4cnn([C@H]5CCN(C(=O)CO)C5)c4)cnc3ccn12 [Example 65, (S)-1-(3-(4-(2-(2-Chlorophenyl)-3-isopropylimidazo[2,1-f][1,6]naphthyridin-9-yl)-1H-pyrazol-1-yl)pyrrolidin-1-yl)-2-hydroxyethan-1-one] |
| < 10 | O=C(CO)N1CC[C@H](n2cc(-c3cnc4ccn5c(Br)c(-c6c(F)cccc6Cl)nc5c4c3)cn2)C1 [Example 66, (S)-1-(3-(4-(3-Bromo-2-(2-chloro-6-fluorophenyl)imidazo[2,1-f][1,6]naphthyridin-9-yl)-1H-pyrazol-1-yl)pyrrolidin-1-yl)-2-hydroxyethan-1-one] |
| 100 to 400 | Cc1c(C2CC2)nc2c3cc(-c4cnn(C)c4)cnc3ccn12 [Example 67, 2-Cyclopropyl-3-methyl-9-(1-methyl-1H-pyrazol-4-yl)imidazo[2,1-f][1,6]naphthyridine] |
| < 10 | Cn1cc(-c2cnc3ccn4c(CO)c(-c5c(Cl)cccc5Cl)nc4c3c2)cn1 [Example 68, (2-(2,6-Dichlorophenyl)-9-(1-methyl-1H-pyrazol-4-yl)imidazo[2,1-f][1,6]naphthyridin-3-yl)methanol] |
| < 10 | OCc1c(-c2c(Cl)cccc2Cl)nc2c3cc(-c4cnn(C5CC5)c4)cnc3ccn12 [Example 69, (9-(1-Cyclopropyl-1H-pyrazol-4-yl)-2-(2,6-dichlorophenyl)imidazo[2,1-f][1,6]naphthyridin-3-yl)methanol] |
| < 10 | OCc1c(-c2c(Cl)cccc2Cl)nc2c3cc(-c4cnn(C5CCOC5)c4)cnc3ccn12 (stereo not shown) [Example 70, (2-(2,6-Dichlorophenyl)-9-(1-(tetrahydrofuran-3-yl)-1H-pyrazol-4-yl)imidazo[2,1-f][1,6]naphthyridin-3-yl)methanol] |
| < 10 | OCc1c(-c2c(Cl)cccc2Cl)nc2c3cc(-c4cnn(C5COC5)c4)cnc3ccn12 [Example 71, (2-(2,6-Dichlorophenyl)-9-(1-(oxetan-3-yl)-1H-pyrazol-4-yl)imidazo[2,1-f][1,6]naphthyridin-3-yl)methanol] |
| < 10 | CN(C)CCn1cc(-c2cnc3ccn4c(CO)c(-c5c(Cl)cccc5Cl)nc4c3c2)cn1 [Example 72, (2-(2,6-Dichlorophenyl)-9-(1-(2-(dimethylamino)ethyl)-1H-pyrazol-4-yl)imidazo[2,1-f][1,6]naphthyridin-3-yl)methanol] |
| < 10 | CC(C)n1cc(-c2cnc3ccn4c(CO)c(-c5c(Cl)cccc5Cl)nc4c3c2)cn1 [Example 73, (2-(2,6-Dichlorophenyl)-9-(1-isopropyl-1H-pyrazol-4-yl)imidazo[2,1-f][1,6]naphthyridin-3-yl)methanol] |
| < 10 | OCc1c(-c2c(Cl)cccc2Cl)nc2c3cc(-c4cnn(C(F)F)c4)cnc3ccn12 [Example 74, (2-(2,6-Dichlorophenyl)-9-(1-(difluoromethyl)-1H-pyrazol-4-yl)imidazo[2,1-f][1,6]naphthyridin-3-yl)methanol] |
| < 10 | N#CCCn1cc(-c2cnc3ccn4c(CO)c(-c5c(Cl)cccc5Cl)nc4c3c2)cn1 [Example 75, 3-(4-(2-(2,6-Dichlorophenyl)-3-(hydroxymethyl)imidazo[2,1-f][1,6]naphthyridin-9-yl)-1H-pyrazol-1-yl)propanenitrile] |
| < 10 | CC(C)(O)Cn1cc(-c2cnc3ccn4c(CO)c(-c5c(Cl)cccc5Cl)nc4c3c2)cn1 [Example 76, 1-(4-(2-(2,6-Dichlorophenyl)-3-(hydroxymethyl)imidazo[2,1-f][1,6]naphthyridin-9-yl)-1H-pyrazol-1-yl)-2-methylpropan-2-ol] |
| < 10 | N#CCn1cc(-c2cnc3ccn4c(CO)c(-c5c(Cl)cccc5Cl)nc4c3c2)cn1 [Example 77, 2-(4-(2-(2,6-Dichlorophenyl)-3-(hydroxymethyl)imidazo[2,1-f][1,6]naphthyridin-9-yl)-1H-pyrazol-1-yl)acetonitrile] |
| < 10 | CN1CCC(n2cc(-c3cnc4ccn5c(CO)c(-c6c(Cl)cccc6Cl)nc5c4c3)cn2)CC1 [Example 78, (2-(2,6-Dichlorophenyl)-9-(1-(1-methylpiperidin-4-yl)-1H-pyrazol-4-yl)imidazo[2,1-f][1,6]naphthyridin-3-yl)methanol] |
| < 10 | CC(C)(CO)n1cc(-c2cnc3ccn4c(CO)c(-c5c(Cl)cccc5Cl)nc4c3c2)cn1 [Example 79, 2-(4-(2-(2,6-Dichlorophenyl)-3-(hydroxymethyl)imidazo[2,1-f][1,6]naphthyridin-9-yl)-1H-pyrazol-1-yl)-2-methylpropan-1-ol] |
| < 10 | CS(=O)(=O)CCn1cc(-c2cnc3ccn4c(CO)c(-c5c(Cl)cccc5Cl)nc4c3c2)cn1 [Example 80, (2-(2,6-Dichlorophenyl)-9-(1-(2-(methylsulfonyl)ethyl)-1H-pyrazol-4-yl)imidazo[2,1-f][1,6]naphthyridin-3-yl)methanol] |
| < 10 | OCc1c(-c2c(Cl)cccc2Cl)nc2c3cc(-c4cnn(CC(F)(F)F)c4)cnc3ccn12 [Example 81, (2-(2,6-Dichlorophenyl)-9-(1-(2,2,2-trifluoroethyl)-1H-pyrazol-4-yl)imidazo[2,1-f][1,6]naphthyridin-3-yl)methanol] |
| < 10 | OCc1c(-c2c(Cl)cccc2Cl)nc2c3cc(-c4cnn(CCN5CCOCC5)c4)cnc3ccn12 [Example 82, (2-(2,6-Dichlorophenyl)-9-(1-(2-morpholinoethyl)-1H-pyrazol-4-yl)imidazo[2,1-f][1,6]naphthyridin-3-yl)methanol] |
| < 10 | OCCn1cc(-c2cnc3ccn4c(CO)c(-c5c(Cl)cccc5Cl)nc4c3c2)cn1 [Example 83, 2-(4-(2-(2,6-Dichlorophenyl)-3-(hydroxymethyl)imidazo[2,1-f][1,6]naphthyridin-9-yl)-1H-pyrazol-1-yl)ethan-1-ol] |
